# Data: PubChem BioAssay (NCI)
#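 Exposure lasted 48 hours, with cells grown in 96-well plates and compounds tested at five concentrations. TGI marks complete inhibition of growth.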
# Legend:
# Test in all cases: inhibition of tumour cell growth, NCI panel, 48 h
# [1] = test system: 786-0 renal
# [2] = test system: A498 renal
# [3] = test system: A549 NSCLC
# [4] = test system: ACHN renal
# [5] = test system: BT-549 breast
# [6] = test system: CAKI-1 renal
# [7] = test system: CCRF-CEM leukemia
# [8] = test system: COLO 205 colon
# [9] = test system: DU-145 prostate
# [10] = test system: EKVX NSCLC
# [11] = test system: HCC-2998 colon
# [12] = test system: HCT-116 colon
# [13] = test system: HCT-15 colon
# [14] = test system: HL-60(TB) leukemia
# [15] = test system: HOP-62 NSCLC
# [16] = test system: HOP-92 NSCLC
# [17] = test system: HS 578T breast
# [18] = test system: HT29 colon
# [19] = test system: IGROV1 ovarian
# [20] = test system: K-562 leukemia
# [21] = test system: KM12 colon
# [22] = test system: LOX IMVI melanoma
# [23] = test system: M14 melanoma
# [24] = test system: MALME-3M melanoma
# [25] = test system: MCF7 breast
# [26] = test system: MDA-MB-231 breast
# [27] = test system: MDA-MB-435
# [28] = test system: MDA-N
# [29] = test system: MOLT-4 leukemia
# [30] = test system: NCI-H226 lung
# [31] = test system: NCI-H23 lung
# [32] = test system: NCI-H460 lung
# [33] = test system: NCI-H522 lung
# [34] = test system: NCI/ADR-RES ovarian
# [35] = test system: OVCAR-3 ovarian
# [36] = test system: OVCAR-4 ovarian
# [37] = test system: OVCAR-5 ovarian
# [38] = test system: OVCAR-8 ovarian
# [39] = test system: PC-3 prostate
# [40] = test system: RPMI-8226 leukemia
# [41] = test system: RXF 393 renal
# [42] = test system: SF-268 CNS
# [43] = test system: SF-295 CNS
# [44] = test system: SF-539 CNS
# [45] = test system: SK-MEL-2 melanoma
# [46] = test system: SK-MEL-28 melanoma
# [47] = test system: SK-MEL-5 melanoma
# [48] = test system: SK-OV-3 ovarian
# [49] = test system: SN12C renal
# [50] = test system: SNB-19 CNS
# [51] = test system: SNB-75 CNS
# [52] = test system: SR leukemia
# [53] = test system: SW-620 colon
# [54] = test system: T-47D breast
# [55] = test system: TK-10 renal
# [56] = test system: U251 CNS
# [57] = test system: UACC-257 melanoma
# [58] = test system: UACC-62 melanoma
# [59] = test system: UO-31 renal
# [60] = test system: KM20L2 colon
structure (smiles),measurement,setting,value
Cc1nn2c(=O)c([N+](=O)[O-])c(/C=C/c3ccccc3)nc2s1,TGI,[1],> 100 µM
same,TGI,[2],59 µM
same,TGI,[3],> 79.1 µM
same,TGI,[4],74.9 µM
same,TGI,[5],7.86 µM
same,TGI,[6],> 100 µM
same,TGI,[7],7.65 µM
same,TGI,[8],28.8 µM
same,TGI,[9],> 100 µM
same,TGI,[10],> 29.8 µM
same,TGI,[11],43.1 µM
same,TGI,[12],15.4 µM
same,TGI,[13],12.3 µM
same,TGI,[14],5.61 µM
same,TGI,[15],> 72 µM
same,TGI,[16],> 100 µM
same,TGI,[17],> 100 µM
same,TGI,[18],7.83 µM
same,TGI,[19],> 67.8 µM
same,TGI,[20],> 26.7 µM
same,TGI,[21],11 µM
same,TGI,[22],3.98 µM
same,TGI,[23],> 53.9 µM
same,TGI,[24],> 71.7 µM
same,TGI,[25],8.86 µM
same,TGI,[26],> 100 µM
same,TGI,[27],5.06 µM
same,TGI,[28],6.72 µM
same,TGI,[29],20.8 µM
same,TGI,[30],21.1 µM
same,TGI,[31],> 100 µM
same,TGI,[32],29 µM
same,TGI,[33],12 µM
same,TGI,[34],> 53 µM
same,TGI,[35],26.5 µM
same,TGI,[36],> 100 µM
same,TGI,[37],> 100 µM
same,TGI,[38],5.26 µM
same,TGI,[39],> 100 µM
same,TGI,[40],6.84 µM
same,TGI,[41],7.32 µM
same,TGI,[42],> 100 µM
same,TGI,[43],> 100 µM
same,TGI,[44],5.89 µM
same,TGI,[45],12.4 µM
same,TGI,[46],64.2 µM
same,TGI,[47],11.2 µM
same,TGI,[48],> 40.5 µM
same,TGI,[49],> 100 µM
same,TGI,[50],> 90.8 µM
same,TGI,[51],20.3 µM
same,TGI,[52],6.52 µM
same,TGI,[53],> 51.4 µM
same,TGI,[54],> 100 µM
same,TGI,[55],41.3 µM
same,TGI,[56],7.99 µM
same,TGI,[57],> 100 µM
same,TGI,[58],26.9 µM
same,TGI,[59],> 54 µM
COc1ccc(/C=C/c2cc(OC)c(OC)c(OC)c2)cc1O,TGI,[1],15.3 µM
same,TGI,[5],40.7 µM
same,TGI,[8],54.3 µM
same,TGI,[9],38.9 µM
same,TGI,[10],59.3 µM
same,TGI,[11],36.9 µM
same,TGI,[18],24 µM
same,TGI,[60],25.1 µM
same,TGI,[36],71.5 µM
same,TGI,[37],79.5 µM
same,TGI,[48],39.9 µM
same,TGI,[54],45.7 µM
same,TGI,[55],75.1 µM
same,TGI,[59],21 µM
O=C1CSC2(CC(/C=C/c3ccccc3O)=NN2c2cccc(S(=O)(=O)O)c2)N1c1nc2ccccc2s1 (configuration not stated),TGI,[1],98.7 µM
same,TGI,[2],> 100 µM
same,TGI,[3],> 100 µM
same,TGI,[4],> 100 µM
same,TGI,[5],77 µM
same,TGI,[6],> 100 µM
same,TGI,[7],51.7 µM
same,TGI,[8],> 100 µM
same,TGI,[9],97.5 µM
same,TGI,[10],> 100 µM
same,TGI,[11],52.6 µM
same,TGI,[12],> 100 µM
same,TGI,[13],> 100 µM
same,TGI,[14],49 µM
same,TGI,[16],> 100 µM
same,TGI,[17],> 100 µM
same,TGI,[18],> 100 µM
same,TGI,[19],> 100 µM
same,TGI,[20],> 100 µM
same,TGI,[21],> 100 µM
same,TGI,[22],39.3 µM
same,TGI,[23],> 100 µM
same,TGI,[24],> 100 µM
same,TGI,[25],> 100 µM
same,TGI,[26],> 100 µM
same,TGI,[27],55.7 µM
same,TGI,[28],> 100 µM
same,TGI,[29],82.9 µM
same,TGI,[30],> 100 µM
same,TGI,[31],> 100 µM
same,TGI,[32],> 100 µM
same,TGI,[33],30.4 µM
same,TGI,[34],> 100 µM
same,TGI,[36],88.5 µM
same,TGI,[37],64.4 µM
same,TGI,[38],54.1 µM
same,TGI,[39],> 100 µM
same,TGI,[40],42.1 µM
same,TGI,[41],> 100 µM
same,TGI,[42],> 100 µM
same,TGI,[44],48.8 µM
same,TGI,[45],> 100 µM
same,TGI,[46],> 100 µM
same,TGI,[47],> 100 µM
same,TGI,[49],78.7 µM
same,TGI,[50],> 100 µM
same,TGI,[51],> 100 µM
same,TGI,[52],49.5 µM
same,TGI,[53],> 100 µM
same,TGI,[54],65.4 µM
same,TGI,[55],58.5 µM
same,TGI,[56],> 100 µM
same,TGI,[57],> 100 µM
same,TGI,[58],> 100 µM
same,TGI,[59],98.9 µM
c1csc(-c2cscc2-c2ccsc2)c1,TGI,[1],> 100 µM
same,TGI,[2],> 100 µM
same,TGI,[3],> 100 µM
same,TGI,[4],> 100 µM
same,TGI,[5],> 100 µM
same,TGI,[6],> 100 µM
same,TGI,[7],> 100 µM
same,TGI,[8],> 100 µM
same,TGI,[9],> 100 µM
same,TGI,[10],> 100 µM
same,TGI,[11],> 89.6 µM
same,TGI,[12],> 100 µM
same,TGI,[13],> 100 µM
same,TGI,[14],> 93.8 µM
same,TGI,[15],> 100 µM
same,TGI,[16],> 100 µM
same,TGI,[17],> 31.6 µM
same,TGI,[18],> 100 µM
same,TGI,[19],> 100 µM
same,TGI,[20],> 100 µM
same,TGI,[21],> 85.6 µM
same,TGI,[22],> 100 µM
same,TGI,[23],> 100 µM
same,TGI,[24],95 µM
same,TGI,[25],> 83.5 µM
same,TGI,[26],> 100 µM
same,TGI,[27],> 68 µM
same,TGI,[28],> 63.3 µM
same,TGI,[29],> 100 µM
same,TGI,[30],> 78.9 µM
same,TGI,[31],> 100 µM
same,TGI,[32],> 100 µM
same,TGI,[33],> 100 µM
same,TGI,[34],> 100 µM
same,TGI,[35],56.1 µM
same,TGI,[36],> 100 µM
same,TGI,[37],> 100 µM
same,TGI,[38],> 100 µM
same,TGI,[39],> 77.9 µM
same,TGI,[40],> 100 µM
same,TGI,[41],68.3 µM
same,TGI,[42],> 100 µM
same,TGI,[43],> 100 µM
same,TGI,[44],> 93.5 µM
same,TGI,[45],> 100 µM
same,TGI,[46],> 100 µM
same,TGI,[47],> 100 µM
same,TGI,[48],> 100 µM
same,TGI,[49],> 100 µM
same,TGI,[50],> 100 µM
same,TGI,[51],> 100 µM
same,TGI,[52],> 95.9 µM
same,TGI,[53],> 100 µM
same,TGI,[54],> 100 µM
same,TGI,[55],> 100 µM
same,TGI,[56],> 100 µM
same,TGI,[57],> 100 µM
same,TGI,[58],> 100 µM
same,TGI,[59],> 100 µM
